In ChEMBL document CHEMBL6109139, “Rational Design of the First Dual Agonist at Trace Amine-Associated Receptor 1 and 5-HT2C Receptors Based on Binding Pocket Similarity for the Treatment of Schizophrenia and Alzheimer's Disease-Related Psychosis” (J Med Chem, 2025):
The source made the active and inactive calls. The rule behind the calls is not given here.

Key:
[1] = Toxicity in female Beagle dog assessed as change in bone marrow smears at 0.75 to 2.5 mg/kg, IG administered once daily for 4 weeks and measured after 4 weeks; format: organism-based, Canis lupus familiaris; settings: in vivo, po, 1344 h, dose 0.75-2.5 mg/kg, time 8 weeks
[2] = Toxicity in male Beagle dog assessed as somnolence at 2.5 mg/kg, IG administered once daily for 4 weeks; format: organism-based, Canis lupus familiaris; settings: in vivo, po, 672 h
[3] = Toxicity in female Sprague-Dawley rat assessed as suppression of food consumption at 7.5 mg/kg, po administered once daily for 4 weeks and measured after 4 weeks; format: organism-based; settings: in vivo, 1344 h, time 8 weeks
[4] = Toxicity in male Beagle dog assessed as change in blood pressure at 0.75 to 2.5 mg/kg, IG administered once daily for 4 weeks and measured after 4 weeks; format: organism-based, Canis lupus familiaris; settings: in vivo, po, 1344 h, dose 0.75-2.5 mg/kg, time 8 weeks
[5] = target: 5-hydroxytryptamine receptor 7 (Homo sapiens, UniProt P34969); experiment: Agonist activity at recombinant human 5-HT7 expressed in HEK293 cells by measuring maximum efficacy at 2 uM by FLIPR calcium assay relative to control; format: functional, cell-based; settings: filed as agonist
[6] = Toxicity in male Sprague-Dawley rat assessed as minimal corneal neovascularization at 7.5 mg/kg, po administered once daily for 4 weeks; format: organism-based; settings: in vivo, 672 h
[7] = Toxicity in female Beagle dog assessed as change in body weight at 0.75 to 2.5 mg/kg, IG administered once daily for 4 weeks and measured after 4 weeks; format: organism-based, Canis lupus familiaris; settings: in vivo, po, 1344 h, dose 0.75-2.5 mg/kg, time 8 weeks
[8] = target: 5-hydroxytryptamine receptor 2C (Mus musculus) (UniProt P34968); experiment: Agonist activity at mouse 5-HT2CR by measuring maximum efficacy relative to control; format: functional; settings: filed as agonist
[9] = Cardiotoxicity in conscious cynomolgus monkey assessed as change in mean arterial pressure at 3.125 to 12.5 mg/kg, IG measured within 25 hrs; format: toxicity, organism-based, Macaca fascicularis; settings: in vivo, po, dose 3.125-12.5 mg/kg
[10] = target: Androgen receptor (Homo sapiens) (UniProt P10275); experiment: Binding affinity to AR (unknown origin) at 10 uM by radioligand binding assay relative to control
[11] = Mutagenicity in Salmonella typhimurium TA1535 by Ames test; format: toxicity; settings: salmonella enterica subsp. enterica serovar typhimurium
[12] = target: 5-hydroxytryptamine receptor 2A (Homo sapiens) (UniProt P28223); experiment: Binding affinity to 5-HT2A (unknown origin) at 10 uM by radioligand binding assay relative to control
[13] = target: Cannabinoid receptor 1 (Homo sapiens) (UniProt P21554); experiment: Binding affinity to CB1 (unknown origin) at 10 uM by radioligand binding assay relative to control
[14] = Cardiotoxicity in conscious cynomolgus monkey assessed as change in systolic pressure at 3.125 to 12.5 mg/kg, IG measured within 25 hrs; format: toxicity, organism-based, Macaca fascicularis; settings: in vivo, po, dose 3.125-12.5 mg/kg
[15] = target: Prostaglandin G/H synthase 2 (Homo sapiens) (UniProt P35354); experiment: Binding affinity to COX2 (unknown origin) at 10 uM by radioligand binding assay relative to control
[16] = Toxicity in Sprague-Dawley rat assessed as animal death 2.5 to 7.5 mg/kg, po administered once daily for 4 weeks; format: organism-based; settings: in vivo, 672 h, dose 2.5-7.5 mg/kg
[17] = target: Glucocorticoid receptor (Homo sapiens) (UniProt P04150); experiment: Binding affinity to GR receptor (unknown origin) at 10 uM by radioligand binding assay relative to control
[18] = Drug concentration in male Sprague-Dawley rat brain at 5 mg/kg, IG measured after 6 hrs by LC-MS/MS analysis; format: ADME, organism-based; settings: in vivo, po
[19] = target: 5-hydroxytryptamine receptor 1B (Homo sapiens) (UniProt P28222); experiment: Binding affinity to 5-HT1B (unknown origin) at 10 uM by radioligand binding assay relative to control
Mus musculus [20] = experiment: Antipsychotic activity in amyloid beta(1 to 42) induced cognitive impairment in mouse model assessed as reduction in exploration time at 1 mg/kg, IG measured after 24 hrs by novel object recognition test; format: functional, organism-based
[21] = Toxicity in female Beagle dog assessed as change in prolactin at 0.75 to 2.5 mg/kg, IG administered once daily for 4 weeks and measured after 4 weeks; format: organism-based, Canis lupus familiaris; settings: in vivo, po, 1344 h, dose 0.75-2.5 mg/kg, time 8 weeks
[22] = Toxicity in female Beagle dog assessed as change in hematology at 0.75 to 2.5 mg/kg, IG administered once daily for 4 weeks and measured after 4 weeks; format: organism-based, Canis lupus familiaris; settings: in vivo, po, 1344 h, dose 0.75-2.5 mg/kg, time 8 weeks
[23] = target: Alpha-1A adrenergic receptor (Homo sapiens) (UniProt P35348); experiment: Binding affinity to alpha 1A (unknown origin) at 10 uM by radioligand binding assay relative to control
[24] = Toxicity in male Beagle dog assessed as change in prolactin at 0.75 to 2.5 mg/kg, IG administered once daily for 4 weeks and measured after 4 weeks; format: organism-based, Canis lupus familiaris; settings: in vivo, po, 1344 h, dose 0.75-2.5 mg/kg, time 8 weeks
HEK293 = experiment: Agonist activity at 5HT2CR […] mutant (unknown origin) expressed in HEK293 cells assessed as IP1 level by HTRF IP1 competitive binding assay; format: cell-based; settings: Homo sapiens
[25] = Plasma protein binding in dog assessed as unbound fraction by LC-MS/MS analysis; format: ADME, cell-free, Canis lupus familiaris
[26] = target: Sodium-dependent serotonin transporter (Homo sapiens) (UniProt P31645); experiment: Binding affinity to 5-HTT (unknown origin) at 10 uM by radioligand binding assay relative to control
[27] = target: T1, 5-hydroxytryptamine receptor 2C (Homo sapiens) (UniProt P28335); experiment: Agonist activity at recombinant human 5-HT2CR expressed in HEK293 cells incubated for 2 hrs by measuring maximum efficacy by FLIPR calcium assay relative to control; format: functional, cell-based; settings: filed as agonist
T1 sequence (whole entry): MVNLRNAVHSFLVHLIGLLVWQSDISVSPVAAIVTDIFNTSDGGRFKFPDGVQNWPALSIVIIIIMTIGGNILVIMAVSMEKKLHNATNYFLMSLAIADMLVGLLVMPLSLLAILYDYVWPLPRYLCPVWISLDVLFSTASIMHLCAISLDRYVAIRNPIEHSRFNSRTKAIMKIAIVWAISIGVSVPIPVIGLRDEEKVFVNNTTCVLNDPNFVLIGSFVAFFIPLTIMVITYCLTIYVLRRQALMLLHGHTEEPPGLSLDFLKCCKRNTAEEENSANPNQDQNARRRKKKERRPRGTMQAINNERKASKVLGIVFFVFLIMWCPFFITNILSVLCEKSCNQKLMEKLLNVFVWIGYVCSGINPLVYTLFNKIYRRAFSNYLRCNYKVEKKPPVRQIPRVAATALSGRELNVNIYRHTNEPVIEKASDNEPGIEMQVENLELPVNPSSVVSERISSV

[28] = Toxicity in male Sprague-Dawley rat assessed as change in prolactin level at 2.5 to 7.5 mg/kg, po administered once daily for 4 weeks and measured after 4 weeks; format: organism-based; settings: in vivo, 1344 h, dose 2.5-7.5 mg/kg, time 8 weeks
[29] = Toxicity in Sprague-Dawley rat assessed as catalepsy 2.5 to 7.5 mg/kg, po administered once daily for 4 weeks; format: organism-based; settings: in vivo, 672 h, dose 2.5-7.5 mg/kg
[30] = target: Prostaglandin G/H synthase 1 (Homo sapiens) (UniProt P23219); experiment: Binding affinity to COX1 (unknown origin) at 10 uM by radioligand binding assay relative to control
Mus musculus [31] = experiment: Antipsychotic activity against MK-801 induced hyperlocomotion in male C57BL/6J mouse model at 3 mg/kg, IG […] followed by compound addition and measured after 30 mins by open field test; format: functional, organism-based

Chain of Androgen receptor (Homo sapiens) (P10275 whole entry): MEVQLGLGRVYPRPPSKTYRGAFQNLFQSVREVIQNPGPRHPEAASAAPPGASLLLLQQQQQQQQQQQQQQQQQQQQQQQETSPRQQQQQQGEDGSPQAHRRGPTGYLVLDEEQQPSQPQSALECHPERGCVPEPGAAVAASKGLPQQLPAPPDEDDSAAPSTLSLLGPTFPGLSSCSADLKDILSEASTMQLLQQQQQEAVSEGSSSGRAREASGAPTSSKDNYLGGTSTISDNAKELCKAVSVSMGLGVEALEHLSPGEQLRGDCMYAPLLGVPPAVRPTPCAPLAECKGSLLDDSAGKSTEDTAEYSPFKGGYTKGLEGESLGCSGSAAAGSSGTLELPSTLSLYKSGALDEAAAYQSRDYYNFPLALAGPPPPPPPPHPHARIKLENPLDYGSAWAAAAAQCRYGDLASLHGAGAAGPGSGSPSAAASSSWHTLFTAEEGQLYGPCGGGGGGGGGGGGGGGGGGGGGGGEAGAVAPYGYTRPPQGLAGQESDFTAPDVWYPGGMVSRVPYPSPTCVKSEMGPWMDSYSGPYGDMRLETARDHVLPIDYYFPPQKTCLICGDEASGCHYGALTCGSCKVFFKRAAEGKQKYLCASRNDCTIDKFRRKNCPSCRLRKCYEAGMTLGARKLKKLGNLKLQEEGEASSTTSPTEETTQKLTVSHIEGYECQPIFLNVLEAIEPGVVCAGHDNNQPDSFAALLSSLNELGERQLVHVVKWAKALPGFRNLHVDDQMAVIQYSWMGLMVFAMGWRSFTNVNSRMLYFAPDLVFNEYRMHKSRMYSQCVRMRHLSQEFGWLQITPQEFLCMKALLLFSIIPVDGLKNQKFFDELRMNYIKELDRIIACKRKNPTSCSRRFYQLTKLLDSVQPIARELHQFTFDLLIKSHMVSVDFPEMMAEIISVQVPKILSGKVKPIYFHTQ
Chain of 5-hydroxytryptamine receptor 2A (Homo sapiens) (P28223 whole entry): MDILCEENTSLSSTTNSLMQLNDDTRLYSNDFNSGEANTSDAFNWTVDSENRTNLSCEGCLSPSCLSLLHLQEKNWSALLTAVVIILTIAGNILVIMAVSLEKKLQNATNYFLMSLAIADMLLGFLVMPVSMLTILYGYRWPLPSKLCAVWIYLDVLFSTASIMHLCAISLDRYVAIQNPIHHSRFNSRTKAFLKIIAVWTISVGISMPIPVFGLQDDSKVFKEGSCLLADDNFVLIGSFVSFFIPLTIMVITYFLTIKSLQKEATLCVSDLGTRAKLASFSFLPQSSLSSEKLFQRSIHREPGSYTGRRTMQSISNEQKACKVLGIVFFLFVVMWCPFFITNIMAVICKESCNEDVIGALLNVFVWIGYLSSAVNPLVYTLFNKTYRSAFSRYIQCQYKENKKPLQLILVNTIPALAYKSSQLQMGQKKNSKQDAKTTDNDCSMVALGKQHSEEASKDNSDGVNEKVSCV
Chain of Glucocorticoid receptor (Homo sapiens) (P04150 whole entry): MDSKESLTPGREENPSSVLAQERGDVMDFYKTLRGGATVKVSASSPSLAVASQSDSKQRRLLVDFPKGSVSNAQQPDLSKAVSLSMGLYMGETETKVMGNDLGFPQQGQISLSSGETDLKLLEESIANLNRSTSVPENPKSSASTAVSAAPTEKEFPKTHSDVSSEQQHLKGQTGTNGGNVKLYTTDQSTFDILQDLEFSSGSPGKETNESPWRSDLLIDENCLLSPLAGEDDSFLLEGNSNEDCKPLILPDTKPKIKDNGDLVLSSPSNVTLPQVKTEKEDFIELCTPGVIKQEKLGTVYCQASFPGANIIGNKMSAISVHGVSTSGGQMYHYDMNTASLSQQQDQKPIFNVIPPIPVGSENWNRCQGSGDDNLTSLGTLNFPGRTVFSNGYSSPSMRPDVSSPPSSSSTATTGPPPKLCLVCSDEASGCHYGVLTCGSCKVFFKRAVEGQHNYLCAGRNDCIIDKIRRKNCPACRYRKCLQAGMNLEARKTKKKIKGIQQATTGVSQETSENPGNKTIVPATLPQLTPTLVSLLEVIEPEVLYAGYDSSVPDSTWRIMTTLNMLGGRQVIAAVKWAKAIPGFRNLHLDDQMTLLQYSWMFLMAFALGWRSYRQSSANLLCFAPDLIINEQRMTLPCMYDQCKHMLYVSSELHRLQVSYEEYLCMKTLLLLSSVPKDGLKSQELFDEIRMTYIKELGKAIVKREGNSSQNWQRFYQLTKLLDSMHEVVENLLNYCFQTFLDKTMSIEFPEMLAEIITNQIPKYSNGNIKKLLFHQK
Chain of 5-hydroxytryptamine receptor 1B (Homo sapiens) (P28222 whole entry): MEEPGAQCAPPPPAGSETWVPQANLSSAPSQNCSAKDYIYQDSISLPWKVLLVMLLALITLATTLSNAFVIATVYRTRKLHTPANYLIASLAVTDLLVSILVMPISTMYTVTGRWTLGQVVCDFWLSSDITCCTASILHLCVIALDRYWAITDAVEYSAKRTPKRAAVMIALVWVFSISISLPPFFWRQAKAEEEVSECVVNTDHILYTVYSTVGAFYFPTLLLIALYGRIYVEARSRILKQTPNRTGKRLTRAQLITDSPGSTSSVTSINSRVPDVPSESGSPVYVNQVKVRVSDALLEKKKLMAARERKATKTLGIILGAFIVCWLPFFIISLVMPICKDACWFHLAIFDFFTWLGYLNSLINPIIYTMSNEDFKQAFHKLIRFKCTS
Chain of Cannabinoid receptor 1 (Homo sapiens) (P21554 whole entry): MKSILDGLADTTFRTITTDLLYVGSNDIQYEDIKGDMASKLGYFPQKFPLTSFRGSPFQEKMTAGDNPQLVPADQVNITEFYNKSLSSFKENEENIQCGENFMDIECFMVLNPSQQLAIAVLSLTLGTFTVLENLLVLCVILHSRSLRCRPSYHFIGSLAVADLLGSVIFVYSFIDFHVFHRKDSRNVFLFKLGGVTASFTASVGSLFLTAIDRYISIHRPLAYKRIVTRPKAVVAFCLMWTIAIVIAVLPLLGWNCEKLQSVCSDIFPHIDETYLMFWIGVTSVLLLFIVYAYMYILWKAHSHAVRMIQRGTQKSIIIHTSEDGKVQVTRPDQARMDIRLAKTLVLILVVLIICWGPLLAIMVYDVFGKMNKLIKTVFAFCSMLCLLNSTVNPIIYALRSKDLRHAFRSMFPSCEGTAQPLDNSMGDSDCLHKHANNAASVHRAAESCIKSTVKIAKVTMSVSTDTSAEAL
Chain of Prostaglandin G/H synthase 1 (Homo sapiens) (P23219 whole entry): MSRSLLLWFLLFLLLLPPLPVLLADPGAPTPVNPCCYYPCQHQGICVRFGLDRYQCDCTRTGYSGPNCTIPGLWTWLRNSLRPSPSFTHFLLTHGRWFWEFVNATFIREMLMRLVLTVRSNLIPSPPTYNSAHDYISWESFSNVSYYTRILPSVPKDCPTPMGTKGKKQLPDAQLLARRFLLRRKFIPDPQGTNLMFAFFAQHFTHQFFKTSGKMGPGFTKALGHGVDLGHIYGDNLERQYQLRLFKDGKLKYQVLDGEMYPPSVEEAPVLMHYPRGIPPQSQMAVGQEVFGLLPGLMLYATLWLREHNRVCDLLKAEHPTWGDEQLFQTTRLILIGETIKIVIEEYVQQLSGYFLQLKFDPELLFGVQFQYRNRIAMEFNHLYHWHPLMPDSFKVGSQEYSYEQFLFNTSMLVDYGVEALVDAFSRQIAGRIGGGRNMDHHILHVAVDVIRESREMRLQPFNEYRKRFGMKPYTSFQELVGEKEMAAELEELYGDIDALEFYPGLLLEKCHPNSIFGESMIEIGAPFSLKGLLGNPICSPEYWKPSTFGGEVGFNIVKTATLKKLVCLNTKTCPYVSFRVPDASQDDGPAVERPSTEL
Chain of Alpha-1A adrenergic receptor (Homo sapiens) (P35348 whole entry): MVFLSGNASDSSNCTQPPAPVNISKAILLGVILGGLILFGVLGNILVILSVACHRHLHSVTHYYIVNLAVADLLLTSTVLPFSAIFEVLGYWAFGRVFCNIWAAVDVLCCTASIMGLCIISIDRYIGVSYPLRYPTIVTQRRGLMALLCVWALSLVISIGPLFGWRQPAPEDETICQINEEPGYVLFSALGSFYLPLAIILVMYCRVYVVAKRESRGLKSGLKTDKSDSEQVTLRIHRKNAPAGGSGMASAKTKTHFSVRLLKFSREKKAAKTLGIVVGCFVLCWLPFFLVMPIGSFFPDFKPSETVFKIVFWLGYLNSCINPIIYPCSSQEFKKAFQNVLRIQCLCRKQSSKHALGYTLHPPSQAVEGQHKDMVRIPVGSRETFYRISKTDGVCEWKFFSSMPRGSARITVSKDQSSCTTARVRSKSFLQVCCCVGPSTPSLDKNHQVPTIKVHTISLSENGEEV
Chain of Prostaglandin G/H synthase 2 (Homo sapiens) (P35354 whole entry): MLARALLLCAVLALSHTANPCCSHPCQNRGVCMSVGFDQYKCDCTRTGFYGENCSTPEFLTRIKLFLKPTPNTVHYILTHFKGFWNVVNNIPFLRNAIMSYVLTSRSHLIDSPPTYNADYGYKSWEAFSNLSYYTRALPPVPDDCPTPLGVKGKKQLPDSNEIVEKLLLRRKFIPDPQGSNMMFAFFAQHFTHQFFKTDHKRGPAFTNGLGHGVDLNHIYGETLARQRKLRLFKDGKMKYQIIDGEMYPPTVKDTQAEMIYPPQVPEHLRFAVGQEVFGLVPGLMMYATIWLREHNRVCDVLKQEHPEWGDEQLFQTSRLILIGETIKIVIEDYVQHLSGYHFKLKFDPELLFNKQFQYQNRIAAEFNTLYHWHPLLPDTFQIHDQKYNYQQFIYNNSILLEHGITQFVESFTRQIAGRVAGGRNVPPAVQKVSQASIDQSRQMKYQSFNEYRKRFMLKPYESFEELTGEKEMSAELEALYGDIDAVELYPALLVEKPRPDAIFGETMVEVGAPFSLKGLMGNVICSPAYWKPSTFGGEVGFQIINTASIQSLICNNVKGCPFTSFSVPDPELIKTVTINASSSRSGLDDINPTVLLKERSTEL

c1cc2c(s1)[C@@H]1CNCCN1CC2
Activity [1]: Non-toxic | Activity [2]: Toxic | Activity [3]: Non-toxic | Activity [4]: Non-toxic | Emax [5]: 65.5% | Activity [6]: Toxic | Activity [7]: Non-toxic | Emax [8]: 103% | Activity [9]: Non-toxic | Activity [10]: -5.37% | Activity [11]: Non-toxic | Activity [12]: 36.5% | Activity [13]: 2.45% | Activity [14]: Non-toxic | Activity [15]: 48.5% | Activity [16]: Non-toxic | Activity [17]: 33.7% | Ct [18]: 3832 nmol/kg | Activity [19]: 47.9% | Activity (Mus musculus [20]): Active | Activity [21]: Non-toxic | Activity [22]: Non-toxic | Activity [23]: 55% | Activity [24]: Non-toxic | Activity (HEK293): inactive | fraction unbound [25]: 0.761 | Activity [26]: 1.76% | Emax [27]: 100% | Activity [28]: Non-toxic | Activity [29]: Non-toxic | Activity [30]: 33.3% | Activity (Mus musculus [31]): inactive
